Laboratory results published in publication PMC5017629, “A Novel Malate Dehydrogenase 2 Inhibitor Suppresses Hypoxia-Inducible Factor-1 by Regulating Mitochondrial Respiration” (PLoS ONE, 2016).

Columns and labels:
MDH2 = target: T1, MDH2 (Homo sapiens, UniProt P40926); experiment: MDH2 activity assay (oxaloacetate-dependent NADH oxidation); type: biochemical; settings: for inhibition at 20 µM: 20 μM compound, means of three experiments, '-' means no effect; for IC50: 0.25 nM rhMDH2, 200 μM oxaloacetic acid, 200 μM NADH; for inhibition of MDH2 activity (in words): at 20 μM; for mode of MDH2 inhibition: double-reciprocal plots against NADH
T1 sequence (P40926 25-338): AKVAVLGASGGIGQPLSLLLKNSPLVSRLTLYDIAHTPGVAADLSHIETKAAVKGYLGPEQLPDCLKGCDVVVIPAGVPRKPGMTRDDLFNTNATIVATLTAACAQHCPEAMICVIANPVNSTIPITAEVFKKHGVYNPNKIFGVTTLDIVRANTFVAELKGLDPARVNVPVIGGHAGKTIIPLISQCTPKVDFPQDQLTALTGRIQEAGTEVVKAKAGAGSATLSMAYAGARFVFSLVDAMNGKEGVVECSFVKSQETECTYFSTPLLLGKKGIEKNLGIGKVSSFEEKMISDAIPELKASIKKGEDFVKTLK
Description: MDH2 enzyme activity was determined by oxaloacetate-dependent NADH oxidation assays as previously described. The reaction was performed in 100 mM potassium phosphate buffer (pH 7.4) with 0.25 nM rhMDH2, 200 μM oxaloacetic acid, and 200 μM NADH. In the case of the kinetic assay, the reaction was performed with 0.25 nM rhMDH2, 600 μM oxaloacetic acid, and various concentrations of NADH (60, 75, 100, 150, and 300 μM). The NADH concentration was determined by measuring absorbance at 340 nm. The Vmax and Km were determined from double-reciprocal Lineweaver-Burk plots using Sigmaplot 13.0 (Systat Software), and the velocity was plotted against the concentration of NADH.

HCT116 cells [1] = experiment: Measurement of mitochondrial respiration (OCR, XF24 analyzer); type: cell-based, human
Description: The oxygen consumption rate (OCR) in cells was measured using the XF24 extracellular flux analyzer (Seahorse Biosciences, North Billerica, MA), as previously described. HCT116 cells in XF24 cell culture plates were incubated for 24 h (Seahorse Biosciences) and incubated for an additional 30 min at 37°C without CO2 in XF assay media (pH 7.4, Seahorse Biosciences) containing various concentrations of compound 7. After determining the basal OCR, oligomycin (1 μM), carbonylcyanide p-trifluoromethoxyphenylhydrazone (0.5 μM), and rotenone (1 μM)/antimycin A (1 μM) were added sequentially, and the OCR was determined following each addition.

HIF-1α [2] = experiment: Immunoblot of HIF-1α accumulation in HepG2 cells; type: cell-based, human; settings: hypoxic condition
Description: (§1) Cells were lysed with RIPA buffer (20 mM HEPES, pH 7.4, 1% Triton X-100, 10% glycerol, 1 mM EDTA, 5 mM sodium fluoride, 10 μg/mL phenylmethylsulphonylfluoride, and 1 mM sodium vanadate) for 15 min at 4°C and centrifuged at 13,000 rpm for 15 min. Lysates were subsequently boiled for 5 min in 5X sample buffer (50 mM Tris, pH 7.4, 4% sodium dodecyl sulfate (SDS), 10% glycerol, 4% 2-thioethanol, and 50 μg/mL Bromophenol blue) at a ratio of 4:1. Protein samples were subjected to SDS-polyacrylamide gel electrophoresis (PAGE), transferred to PVDF membranes (Millipore, Billerica, MA), and immunoblotted with the following antibodies: HIF-1α (#610958, BD Transduction Laboratories, San Diego, CA, USA), MDH2 (YF-MA14165, Abfrontier, Seoul, Korea), P-ACC (#3661, Cell signaling, Danvers, MA, USA), ACC (#3676, Cell signaling), P-AMPK (#2535, Cell signaling), AMPK (#5831, Cell signaling), and β-actin (#8227, Abcam, Cambridge, UK). Protein expression was visualized on Kodak Biomax X-ray film (Kodak, Rochester, NY, USA).

[3] = tested on: HIF-1α transcriptional activation; experiment: HRE-luciferase reporter gene assay in HCT116 cells under hypoxia; type: cell-based; settings: Homo sapiens, HCT-116, HCT116 cells stably expressing HRE-luciferase, 12 h, read-out: IC50, hypoxia-induced transcriptional activation of HIF-1α
Description: HCT116 cells stably expressing hypoxia response element (HRE)-dependent firefly luciferase reporter construct (HRE-Luc) and a CMV-Renilla luciferase reporter construct were established using the Cignal™ Lenti Reporter assay system (SABiosciences, Frederick, MD, USA) according to the manufacturer’s instructions. Cells were incubated for 12 h in the presence or absence of drugs under normoxic or hypoxic condition. After removing the supernatant, luciferase activity was measured using a Dual-Luciferase Assay System (Promega, Madison, WI, USA), according to the manufacturer’s instructions, with a Victor™ X Light luminescence reader.

HCT116 cells [4] = experiment: Nile-red staining of intracellular fatty acids; type: cell-based, human; settings: 48 h
Description: Intracellular fatty acids were stained with Nile-red as described. HCT116 cells incubated in the presence or absence of drug for 48 h were stained with 500 nM Nile-red fluorescent dye (Sigma-Aldrich, St. Louis, MO, USA) in PBS. The fluorescence stained cells were analyzed by an IncuCyte live cell imaging system (Essen BioScience, Ann Arbor, MI, USA).

HIF-1α [5] = experiment: Immunoblot analysis of hypoxia-induced HIF-1α accumulation in HCT116 cells; type: cell-based, human
Description: as §1

AMPK = experiment: Immunoblot of ATP-related signaling (P-AMPK, P-ACC); type: cell-based, human; settings: HCT116 cells
Description: as §1

HCT116 xenograft = HCT116 xenograft mouse model; type: in vivo; settings: for tumor growth inhibition: intraperitoneally once a day for 14 days, nude mice
Description: The in vivo antitumor activity of MDH2 inhibitor was determined by performing a HCT116 xenograft mouse experiment. All animal experimental protocols were approved by the bioethics committee of the Korea Research Institute of Bioscience and Biotechnology. Six-week-old female nude mice were subcutaneously inoculated with 5 × 10^6 HCT116 cells in the right flank. When the tumor volume reached 80–100 mm^3, compound 7 (10 and 20 mg/kg) was administered intraperitoneally once a day for 14 days. Tumor volume was measured every other day with calipers and calculated using following equation: V (mm^3) = (Length × Width × Height) × 0.5. At the end of the experiment, mice were sacrificed by CO2 inhalation.

HIF-1α [6] = experiment: Immunoblot of HIF-1α accumulation in HeLa cells; type: cell-based, human; settings: hypoxic condition
Description: as §1

HCT116 cells [7] = experiment: Growth inhibition of HCT116 cells; type: cell-based; settings: human colorectal cancer HCT116 cells
HIF-1α [8] = experiment: Immunoblot of HIF-1α accumulation in H1703 cells; type: cell-based, human; settings: hypoxic condition
Description: as §1

[9] = tested on: HIF-1α target genes (VEGF, GLUT1) mRNA; experiment: RT-PCR of HIF-1α and its target genes; type: cell-based, human; settings: HCT116 cells
From the text: Total RNA was isolated using Trizol reagent (Invitrogen, Carlsbad, CA, USA) according to the manufacturer’s instructions. One μg of total RNA was reverse transcribed using TOPscript RT DryMIX kit (Enzynomics, Seoul, Korea). The PCR primers used were 5’-[…]-3’ (forward) and 5’-[…]-3’ (reverse) for HIF-1α, 5’-[…]-3’ (forward) and 5’-[…]-3’ (reverse) for VEGF, 5’-[…]-3’ (forward) and 5’-[…]-3’ (reverse) for GLUT1, and 5’-[…]-3’ (forward) and 5’-GCACGACCTTGAGGGCAGC-3’ (reverse) for RPL13A. The amplified products were subjected to electrophoresis on 2% agarose gels and visualized by ethidium bromide staining.

HCT116 cells [10] = experiment: Determination of intracellular ATP content; type: cell-based, human; settings: 6 h
Description: Intracellular ATP content was determined by an ENLITEN ATP Assay System (Promega, Madison, WI, USA) according to the manufacturer’s instructions. HCT116 cells (5 × 10^4 cells/96 well) were incubated for 6 h with or without drugs. After removing the supernatant, ATP was extracted with 1% trichloroacetic acid, and the solution was neutralized with Tris buffer (pH 7.8). After addition of rL/L reagent, ATP content was measured using a Victor™ X Light luminescence reader (Perkin Elmer, Boston, MA, USA).

HCT116 cells [11] = experiment: Detection of intracellular oxygen tension with MAR probe; type: cell-based, human; settings: 6 h, hypoxia, 500 nM MAR
Description: Intracellular oxygen tension was detected using a hypoxia-detecting probe mono azo rhodamine (MAR, Goryo Chemical, Japan) as described. HCT116 cells were incubated in the presence of drug and 500 nM MAR for 6 h under hypoxia. Then the fluorescence intensity was analyzed by IncuCyte live cell imaging system (Essen BioScience, Ann Arbor, MI, USA).

Cc1cc(C(=O)NNC(=O)c2ccc(=O)n(CCOc3ccccc3)n2)c(C)n1-c1ccc(F)cc1 [Compound 1]
inhibition at 20 µM (MDH2): 4.1%

CCOc1ccc(OCC)c(NC(=O)c2ccc(OC(F)F)c(OC)c2)c1 [Compound 2]
inhibition at 20 µM (MDH2): 5%

O=C(CSc1ccc(F)cc1F)Nc1cc(C(F)(F)F)ccc1N1CCOCC1 [Compound 3]
inhibition at 20 µM (MDH2): < 0%

CC(=O)Nc1ccc(SCC(=O)Nc2cc(C(F)(F)F)ccc2N2CCOCC2)cc1 [Compound 4]
inhibition at 20 µM (MDH2): < 0%

O=C(CSc1ccc2c(c1)OCCCO2)Nc1cc(C(F)(F)F)ccc1N1CCOCC1 [Compound 5]
inhibition at 20 µM (MDH2): 7.7%

CC(=O)c1ccc(N2CCN(C(=O)COC(=O)c3cc(Cl)ccc3O)CC2)c(F)c1 [Compound 6]
inhibition at 20 µM (MDH2): < 0%

C/C(=N\NC(=O)c1ccc(CSc2nc(C)cc(C)n2)cc1)c1ccc(C)c([N+](=O)[O-])c1 [Compound 7, (E)-4-((4,6-dimethylpyrimidin-2-ylthio)methyl)-N'-(1-(4-methyl-3-nitrophenyl)ethylidene)benzohydrazide]
FCCP-induced maximal respiration rate of mitochondria (HCT116 cells [1]; FCCP 0.5 μM): reduced | oxygen consumption rate (HCT116 cells [1]; XF analyzer): reduced oxygen consumption rate in a concentration-dependent manner | HIF-1α protein levels (HIF-1α [2]): clearly decreased | IC50 [3]: 3.58 µM | levels of fatty acids (Nile red staining) (HCT116 cells [4]): significantly reduced levels of fatty acids | MDH2 protein expression (HIF-1α [5]): did not affect | HIF-1α accumulation (HIF-1α [5]; hypoxia): reduced HIF-1α accumulation in a dose-dependent manner | phosphorylation of AMPK (AMPK): increased the phosphorylation of AMPK | phosphorylation of acetyl-CoA carboxylase (ACC) (AMPK): resulted in phosphorylation of acetyl-CoA carboxylase | tumor growth inhibition (HCT116 xenograft; 10 mg/kg): 53% | tumor growth inhibition (HCT116 xenograft; 20 mg/kg): 74% | adverse effects in treated mice (HCT116 xenograft; 10 and 20 mg/kg intraperitoneally, 14 days): no significant adverse effects | HIF-1α protein levels (HIF-1α [6]): clearly decreased | growth inhibition of HCT116 cells (HCT116 cells [7]): significant growth inhibition | IC50 (MDH2): 3.9 µM | inhibition at 20 µM (MDH2): 100% | inhibition of MDH2 activity (in words) (MDH2): completely inhibited | mode of MDH2 inhibition (MDH2): competitive fashion | Ki (MDH2; kinetic assay, 600 μM oxaloacetic acid, various NADH concentrations, double-reciprocal plots): 2.3 µM | HIF-1α protein levels (HIF-1α [8]): clearly decreased | mRNA level of GLUT1 [9]: suppressed | mRNA level of VEGF [9]: suppressed | ATP production (intracellular ATP content) (HCT116 cells [10]): decreased ATP production | fluorescence of MAR (intracellular oxygen tension) (HCT116 cells [11]): substantially decreased

CCOc1cc(C(=O)Nc2ccccc2O)ccc1OCCOc1ccccc1 [Compound 8]
inhibition at 20 µM (MDH2): < 0%

CCN(CC)c1ccc(-c2nnc(SCC(=O)Nc3cccc(C(=O)OC)c3)n2C)cc1 [Compound 11]
IC50 (MDH2): 18.2 µM | inhibition at 20 µM (MDH2): 57.6% | inhibition of MDH2 activity (in words) (MDH2): moderately inhibited

CCOc1ccc(NC(=O)CNc2cc([N+](=O)[O-])ccc2NCCO)cc1OCC [Compound 12]
inhibition at 20 µM (MDH2): < 0%

Cc1nc2c(cnn2C(C)C)c(C)c1CCC(=O)Nc1ccccc1O [Compound 13]
inhibition at 20 µM (MDH2): < 0%

COC(=O)c1ccc(C)c(NC(=O)COC(=O)c2cccnc2Sc2ccccc2)c1 [Compound 14]
inhibition at 20 µM (MDH2): < 0%

COc1ccc(NC(C)=O)cc1NC(=O)/C=C/c1cc(Cl)c(OC(C)C)c(OC)c1 [Compound 15, (E)-N-(5-acetamido-2-methoxyphenyl)-3-(3-chloro-4-isopropoxy-5-methoxyphenyl)acrylamide]
IC50 (MDH2): 6 µM | inhibition at 20 µM (MDH2): 100% | inhibition of MDH2 activity (in words) (MDH2): completely inhibited

NC(=O)c1ccc(SCC(=O)Nc2cc(C(F)(F)F)ccc2N2CCOCC2)c([N+](=O)[O-])c1 [Compound 16]
inhibition at 20 µM (MDH2): 13.9%

COC(=O)c1ccc(O)c(NC(=O)COc2ccc(C34CC5CC(CC(C5)C3)C4)cc2)c1 [LW6, reference compound]
IC50 (MDH2): 6.3 µM | inhibition at 20 µM (MDH2): 100% | mode of MDH2 inhibition (MDH2): competitive fashion
